This is an account of results in patent publication US20240131155A1, “T CELLS FOR USE IN THERAPY” (Erasmus University Medical Center Rotterdam, priority 2021, published 2024).

Read-outs that look alike come from different tables or passages of the source. Peptide text beside a SMILES is read from it.

The subject of assay [1] is CD8+ T cells. As to the kind of experiment: Enrichment of epitope-specific CD8 T cells from healthy donors, epitope-specific IFNg production (ELISA). In kind it is cell-based, human. Conditions: positive co-cultures / co-cultures tested. As to the method:
(§1) Enrichment of epitope-specific CD8 T cells was performed according to the protocol described by Butler et al., Clin Cancer Res.;13(6):1857-1867 (2007), doi:10.1158/1078-0432, but included the following amendments. CD8+ T lymphocytes were collected from PBMCs by magnetic-activated cell sorting (MACS) according to the CD8 isolation kit (Miltenyi Biotec). CD8+ T cells with >95% purity were subsequently cultured in T cell medium supplemented with IL-2 (36 IU/mL; but no gentamycin) for 1 day, after which expansion cycles started. K562ABC cells (kindly provided by prof. Bruce Levine, University of Pennsylvania, PA) were loaded with 10 μg/ml ROPN1 and/or ROPN1B peptide and incubated for 5 h at RT in serum-free medium, after which cells were washed and fixed with 0,1% paraformaldehyde. After washing, K562ABC cells were suspended at 0.1×10^6/mL and co-cultured with T cells in a 1:20 ratio. IL-2 (36 IU/mL) and IL-15 ([…]) were added at days 1 and 3 days after start of co-culture, and after 6 days, T cells were counted, suspended at 2×10^6/mL and rested for 1 day, after which the next cycle commenced (this schedule continued up to 4 or 5 cycles). Following 4 and 5 cycles, T cells were stained with pMHC multimers (HLA*0201/MLN, Immudex, Copenhagen, Denmark). pMHC-PE were pre-incubated at RT for 10 min followed by incubation with 7AAD, anti-CD3-FITC and anti-CD8-APC for 20 min. Cells were fixed with 1% paraformaldehyde and TCR expression was measured with flow cytometry and analyzed using FlowJoX software. FIG. 4A schematically depicts the procedure to enrich epitope-specific T cells, and obtainthe corresponding TCR genes.
Enriched T cells were tested for ROPN1 and/or ROPN1B epitope-specific IFNY production. To this end, T2 cells (4×10^6/mL) were loaded with peptide (20 ng/mL) for 30 min. T cells (2×10^5) were cultured in a 1:1 ratio with T2 cells in a round bottom 96-wells plate, and the next day supernatant was collected and IFN-γ production was measured with an Enzyme-linked immunosorbent assay (ELISA, Invitrogen) according to manufacturer's protocol (FIG. 4B). T2 cells without peptide were included as a negative control; and staphylococcal enterotoxin B (0.1 μg, Sigma) was used as a positive control.
Enrichment of epitope-specific T cells was performed by co-culturing naïve T cells with CD11c-positive cells that were loaded with peptide. PBMCs were passed through a cell strainer (70 μm) and used for the isolation of naïve T cells and CD11c cells. To isolate CD11c-positive cells (typically dendritic cells, DC), PBMCs were stained for 10 mM at 4° C. with Fc block (10 μL/10^7 PBMCs, BD Pharmingen, Vianen, the Netherlands), after which cells were stained with CD11c-PE antibody (10 μL/10^7 PBMCs, BD Pharmingen) for 30 mM at 4° C., washed, and incubated with PE beads (10 μL/10^7 PBMCs, Miltenyi Biotech, Bergisch Gladbach, Germany) for another […] at 4° C. After washing, cells were dissolved in magnetic-activated cell sorting (MACS) buffer and passed through a MACS LS column (Miltenyi Biotec) to positively select CD11c cells. After selection, CD11c cells were irradiated with 30 Gy, and cultured overnight in a 24-wells plate (1×10^6/mL) in RPMI medium supplemented with 1% human serum (Sanquin), 1% antibiotics, […] L-glutamine, a DC maturation cocktail (a mixture of GM-CSF (10 ng/mL, ImmunoTools, Germany), IL-4 (10 ng/mL, ImmunoTools), LPS (100 ng/mL, Invitrogen, Goteborg, Sweden) and IFNY (10 ng/mL, Preprotech, London, United Kingdom)), as well as peptide (10 pg/mL). Naïve T cells were isolated with use of the Naïve T Cell isolation kit (Miltenyi Biotec) according to the manufacturer's protocol, and suspended in RPMI medium supplemented with 5% human serum (Sanquin), 1% antibiotics, […] L-glutamine and IL-7 (5 ng/mL, BD Pharmingen). The run-through of the naïve T cell selection was frozen down and used for re-stimulation of epitope-specific T cells. […]

The target of another assay is T1, HLA-A2 (Homo sapiens, UniProt P04439, D140Y/D185E/D98H/E176V/E277Q/G131W/G231S/I119V/I121R/I166T/I218V/L300P/L318F/N151K/N90K/P208A/P217A/Q86G/Q94H/R138H/R169H/T345S).
T1 construct: The HLA-A2 stabilization assay was performed using T2 cells; endogenous in cells; host or cells: T2 cells (LCLxT lymphoblastoid hybrid cell line 0.1743CEM.T2)
As to the kind of experiment: HLA-A2 stabilization assay using T2 cells. Format: binding. Conditions: for binding to HLA-A2: in words, peptides derived from immunopeptidome.

For assay [2], the system named is CD8+ T cells. As to the kind of experiment: peptide:MHC multimer/tetramer staining of enriched T cells (flow cytometry). In kind it is cell-based, human. Conditions: Table 4; enriched T cells after enrichment cycles. As to the method: as §1
Following enrichment, T cells were tested for ROPN1 and/or ROPN1B epitope-specific IFNY production. To this end, T2 cells (1×10^6/mL) were loaded with peptide (20 ng/mL) for 30 min, after which T cells (1×10^5) were cultured in a 1:1 ratio with T2 cells in a round bottom 96-wells plate for 18 h. Supernatant was collected and IFN-γ production was measured with an Enzyme-linked immunosorbent assay (ELISA, BioLegend) according to the manufacturer's protocol (FIG. 9A). T2 cells loaded with an irrelevant peptide were included as a negative control. T cell IFNg production was considered epitope-specific in case levels exceeded 200 pg/ml, and levels were minimally twice as high as for irrelevant peptide (see for full listing of criteria, FIG. 8). T cells that fulfilled these criteria were stained with peptide:MHC (pMHC) tetramers to determine the frequency of epitope-specific T cells. Empty Loadable HLA Tetramers (5 μL, Tetramer shop, Kongens Lyngby, Denmark) were incubated with 0.5 μL peptide (200 μM) for 30 min on ice. Complexes of pMHC were centrifuged (3300 g, 5 min) and incubated with 0.1×10^6 T cells for 15 min at 37° C. in the dark. Next, an antibody cocktail containing CD3-FITC (1:30, BD) and CD8-APC (1:300, eBiosciences) was added and incubated for an additional 30 min at 4° C. in the dark. Finally, T cells were washed twice and fixed with 1% paraformaldehyde (PFA), after which events were acquired with FACSCelesta (BD) and analyzed using FlowJoX software.
In general terms: A flow cytometer gives signals particle by particle.

Assay [3] concerns the target T2, HLA-A2 (HLA-A2:01) on T2 cells (human).
T2 construct: detected with anti-HLA-A2 mAb BB7.2
The assay can be described thus: HLA-A2 stabilization assay on T2 cells (anti-HLA-A2-PE, flow cytometry), single peptide concentration 25 ug/mL [panel E].

Assay [4] deals with T2, HLA-A2 (HLA-A2:01) on T2 cells. The assay can be described thus: HLA-A2 stabilization assay on T2 cells (anti-HLA-A2-PE, flow cytometry), single peptide concentration [panel D].
Where [5] appears, read: Table 2 (Example 1), EC50 of peptide titration on T2 cells, read-out: Affinity for HLA A2:01.
Where [6] appears, read: Table 4 (Examples 1 and 2), EC50 of peptide titration on T2 cells, read-out: Affinity for HLA.A2.01.
The mark [7] stands for this setting: Table 2 (Example 1), healthy donor T cells.
The mark [8] stands for this setting: Example 1, top-ranked epitopes, no legible unit, read-out: EC50 (HLA-A2 binding).

Regarding `CC(C)C[C@H](NC(=O)[C@H](C)N)C(=O)N[C@@H](C)C(=O)N[C@@H](CS)C(=O)N[C@@H](CO)C(=O)N[C@@H](C)C(=O)N[C@@H](CC(C)C)C(=O)NCC(=O)N[C@H](C(=O)O)C(C)C` (H-ALACSALGV-OH; N-terminus and C-terminus assumed), in the assay with CD8+ T cells [1] (Table 4), the “T cell responses observed (IFNg) against epitope” value (“T cell responses observed (IFNg)” below) was 0/4 co-cultures. The EC50 on HLA-A2 (setting [5]) came out at 3.16 µM; at HLA-A2 (setting [6]) it was 2.84 µM.

Take `CC[C@H](C)[C@H](NC(=O)[C@@H](NC(=O)[C@@H](N)CC(C)C)[C@@H](C)CC)C(=O)N[C@@H](CCCNC(=N)N)C(=O)N[C@@H](C)C(=O)N[C@@H](CCC(=O)O)C(=O)N[C@@H](CCC(=O)O)C(=O)N[C@@H](CC(C)C)C(=O)N[C@@H](C)C(=O)N[C@@H](CCC(N)=O)C(=O)N[C@@H](CCSC)C(=O)O` (H-LIIRAEELAQM-OH; N-terminus and C-terminus assumed): the “T cell responses observed (IFNg)” value in the assay with CD8+ T cells [1] (Table 4) is 1/7 co-cultures. For the same molecule, the “pMHC staining % pMHC+ CD8+ in CD3+” value in the assay on CD8+ T cells [2] amounted to 0.60%. The EC50 at HLA-A2 (setting [5]) and at HLA-A2 (setting [6]) was 6.99 µM each time. Moreover, the “binding to HLA-A2” value on HLA-A2 is reported as “did bind to HLA-A2 with high affinity”.

Turning to `CC(C)C[C@H](NC(=O)[C@H](C)NC(=O)[C@H](CO)NC(=O)[C@H](CS)NC(=O)[C@H](C)NC(=O)[C@H](CC(C)C)NC(=O)[C@H](C)NC(=O)[C@H](CC(C)C)NC(=O)[C@@H](N)Cc1ccccc1)C(=O)O` [FLALACSAL] (H-FLALACSAL-OH; N-terminus and C-terminus assumed), the “T cell responses observed (IFNg)” value in the assay with CD8+ T cells [1] (setting [7]) and in the assay with CD8+ T cells [1] (Table 4) was 2/5 co-cultures throughout. Further, the “pMHC staining % pMHC+ CD8+ in CD3+” value in the assay with CD8+ T cells [2] came out at 0.077%. Also, the EC50 at HLA-A2 (Example 1, top-ranked epitopes, read-out: EC50 (HLA-A2 binding)) came out at 5.1 µM; on HLA-A2 (setting [5]), 5.05 µM; on HLA-A2 (setting [6]) it was 4.5 µM.

As for `CC[C@H](C)[C@H](NC(=O)[C@H](CCCCN)NC(=O)[C@H](CC(C)C)NC(=O)[C@@H](NC(=O)[C@@H](N)CCCCN)[C@@H](C)O)C(=O)N[C@H](C(=O)N[C@@H](CS)C(=O)N[C@@H](CCC(=O)O)C(=O)N[C@H](C(=O)O)C(C)C)C(C)C` (H-KTLKIVCEV-OH; N-terminus and C-terminus assumed), the “T cell responses observed (IFNg)” value in the assay on CD8+ T cells [1] (setting [7]) and in the assay on CD8+ T cells [1] (Table 4) was 2/4 co-cultures in each case. Further, in the assay with CD8+ T cells [2], the “pMHC staining % pMHC+ CD8+ in CD3+” value is 0.28%. For the same molecule, the EC50 at HLA-A2 (setting [8]) was determined as 4.4 µM; at HLA-A2 (setting [5]) it was 4.35 µM; at HLA-A2 (setting [6]) it was 4.4 µM.

For `CC[C@H](C)[C@H](NC(=O)[C@H](Cc1ccc(O)cc1)NC(=O)[C@@H](NC(=O)[C@H](Cc1ccc(O)cc1)NC(=O)[C@H](CC(C)C)NC(=O)[C@H](Cc1ccccc1)NC(=O)[C@H](CCC(N)=O)NC(=O)[C@@H](N)Cc1ccccc1)[C@@H](C)O)C(=O)N[C@@H](C)C(=O)O` (H-FQFLYTYIA-OH; N-terminus and C-terminus assumed), the “T cell responses observed (IFNg)” value with CD8+ T cells [1] (setting [7]) and in the assay on CD8+ T cells [1] (Table 4) was 1/4 co-cultures throughout. The “pMHC staining % pMHC+ CD8+ in CD3+” value with CD8+ T cells [2] is on record as 0.43%. Besides, the EC50 at HLA-A2 (setting [8]) is 3.3 µM; on HLA-A2 (setting [5]) it was 3.28 µM; at HLA-A2 (setting [6]) it was 3.43 µM.

Consider “AELTPELLKI (Epitope 16) [eluted 10-mer, mapped in silico to HLA-B40:01]”, for which, in the assay with HLA-A2, the “binding to HLA-A2” value is listed as “did not bind to HLA-A2”.

With `CSCC[C@H](NC(=O)[C@@H](N)CCCCN)C(=O)N[C@@H](CC(C)C)C(=O)N[C@@H](CCCCN)C(=O)N[C@@H](CCC(=O)O)C(=O)N[C@@H](Cc1ccccc1)C(=O)N[C@@H](C)C(=O)N[C@@H](CCCCN)C(=O)N[C@@H](C)C(=O)O` (H-KMLKEFAKA-OH; N-terminus and C-terminus assumed), the “T cell responses observed (IFNg)” value in the assay on CD8+ T cells [1] (Table 4) is listed as 0/2 co-cultures. The figures for the EC50 at HLA-A2 (setting [5]) and on HLA-A2 (setting [6]) were 91.2 µM and 38.2 µM, respectively.

On to GLPRIPFST (ROPN1B, predicted), for which the Minimum stability in assay [3] and in assay [4] was 1.06 fold change over baseline each time.

Consider HVSRMLNYI (ROPN1B, predicted), for which the Minimum stability in assay [3] and in assay [4] was 1.09 fold change over baseline throughout.
